Tests used:
[1] = molecular target: T1, AtCXE20 (Arabidopsis thaliana, UniProt Q9LVB8); assay: differential scanning fluorimetry (Sypro Orange); format: binding; conditions: 10 μM protein, 500 μM rac-GR24; 20 mM HEPES, 150 mM NaCl, 1 mM TCEP
T1 construct: gene CXE20; full length (residues 1-327; cap 1-26, core 53-327), codon-optimized synthetic gene, E. coli BL21(DE3), 6xHis-SUMO tag cleaved off
T1 sequence (Q9LVB8 1-327): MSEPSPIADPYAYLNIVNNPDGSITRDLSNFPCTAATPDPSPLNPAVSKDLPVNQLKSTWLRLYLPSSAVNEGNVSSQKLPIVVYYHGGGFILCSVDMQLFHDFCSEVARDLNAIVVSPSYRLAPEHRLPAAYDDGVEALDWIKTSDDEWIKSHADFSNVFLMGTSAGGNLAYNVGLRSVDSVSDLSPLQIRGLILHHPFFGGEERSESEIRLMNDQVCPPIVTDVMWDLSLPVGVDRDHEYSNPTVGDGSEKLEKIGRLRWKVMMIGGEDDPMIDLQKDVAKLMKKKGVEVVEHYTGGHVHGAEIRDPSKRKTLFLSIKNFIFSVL

[2] = molecular target: T2, AtCXE15 (Arabidopsis thaliana, UniProt Q9FG13); assay: X-ray crystal structure (soak), […] Å; format: binding; conditions: covalent; D-ring of GR24 linked to S169; 1 mM rac-GR24 soak
T2 construct: gene CXE15; full length (residues 1-329; NTH cap 1-21, core 32-329), E. coli BL21(DE3), 6xHis-SUMO tag cleaved off

[3] = molecular target: T2, AtCXE15; assay: differential scanning fluorimetry (Sypro Orange); format: binding; conditions: 10 μM protein, 500 μM rac-GR24; 20 mM HEPES, 150 mM NaCl, 1 mM TCEP
[4] = test system: T3, CXE15^CXE20-NTα/β; assay: fluorescence hydrolysis assay, Michaelis-Menten fit; format: biochemical, Arabidopsis thaliana; conditions: 50 mM MES pH 6.0, 250 mM NaCl, 1 mM DTT; 5 μM enzyme
T3 construct: CXE15 core with its NTH replaced by the NT-α/β of CXE20 (one polypeptide)

[5] = molecular target: T1, AtCXE20; assay: as above; format: biochemical; conditions: 50 mM MES pH 6.0, 250 mM NaCl, 1 mM DTT; 1 μM enzyme
[6] = molecular target: T2, AtCXE15; assay: as above; format: biochemical; conditions: 50 mM MES pH 6.0, 250 mM NaCl, 1 mM DTT; 1 μM enzyme
[7] = test system: T4, CXE20^CXE15-NTH; assay: as above; format: biochemical, Arabidopsis thaliana; conditions: 50 mM MES pH 6.0, 250 mM NaCl, 1 mM DTT; 2 μM enzyme
T4 construct: CXE20 core with its NT-α/β replaced by the NTH of CXE15 (one polypeptide)

[8] = molecular target: CXE15^ΔNTH (Arabidopsis thaliana, UniProt Q9FG13); assay: as above; format: biochemical; conditions: 50 mM MES pH 6.0, 250 mM NaCl, 1 mM DTT; 2 μM enzyme; no NTH peptide added
CXE15^ΔNTH, sequence (Q9FG13 46-329, stated change not applied): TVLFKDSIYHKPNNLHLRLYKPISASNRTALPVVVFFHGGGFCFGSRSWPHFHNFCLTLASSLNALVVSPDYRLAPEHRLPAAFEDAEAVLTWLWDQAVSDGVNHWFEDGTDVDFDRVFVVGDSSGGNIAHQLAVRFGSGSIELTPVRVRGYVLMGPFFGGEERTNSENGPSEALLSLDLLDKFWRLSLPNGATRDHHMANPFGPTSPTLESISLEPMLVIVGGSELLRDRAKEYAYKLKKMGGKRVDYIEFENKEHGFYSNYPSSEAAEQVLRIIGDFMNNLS

T2 sequence (Q9FG13 whole entry, the tested form may be a part): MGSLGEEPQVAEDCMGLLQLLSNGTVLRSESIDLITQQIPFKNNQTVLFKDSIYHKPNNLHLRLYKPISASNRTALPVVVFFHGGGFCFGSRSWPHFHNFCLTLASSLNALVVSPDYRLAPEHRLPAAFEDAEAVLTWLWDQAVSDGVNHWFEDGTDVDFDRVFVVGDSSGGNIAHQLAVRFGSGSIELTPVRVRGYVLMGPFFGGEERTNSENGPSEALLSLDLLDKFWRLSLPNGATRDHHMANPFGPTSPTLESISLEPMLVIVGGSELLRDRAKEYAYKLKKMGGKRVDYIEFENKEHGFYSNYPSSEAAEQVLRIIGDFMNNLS

Row | Structure (SMILES) | ΔTm [1] | X-ray crystal structure (soak), 2.3 Å [2] | ΔTm [3] | Km [4] | Km [5] | Km [6] | Km [7] | Km [8]
1 | CC1=CC(OC=C2C(=O)OC3c4ccccc4CC23)OC1=O (racemic) [rac-GR24] | −5.0 °C | hydrolyzed lactone D-ring of rac-GR24 covalently linked to S169 of the catalytic triad | +1.0 °C |  |  |  |  | 
2 | CCOC(=O)c1ccccc1-c1c2ccc(=O)cc-2oc2cc(OC3C=C(C)C(=O)O3)ccc12 (centres unmarked) [Yoshimulactone Green] |  |  |  | 19.6 ± 2.5 µM | 8.6 ± 2.3 µM | 21 ± 4.7 µM | 7.5 ± 1.1 µM | 62 ± 12.6 µM
